Molecules are shown by their SMILES. pIC50: −log10 of the molar value.

T1 sequence (P52333 811-1103): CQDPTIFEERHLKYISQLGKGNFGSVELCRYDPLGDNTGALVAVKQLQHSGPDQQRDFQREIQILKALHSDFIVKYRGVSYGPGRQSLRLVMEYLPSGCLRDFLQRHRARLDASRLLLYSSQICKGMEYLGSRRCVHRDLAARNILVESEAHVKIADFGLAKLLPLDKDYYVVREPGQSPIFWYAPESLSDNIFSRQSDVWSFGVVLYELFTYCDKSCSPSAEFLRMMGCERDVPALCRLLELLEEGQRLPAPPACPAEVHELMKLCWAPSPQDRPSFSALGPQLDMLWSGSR

The assay addresses T1, Jak3 (Homo sapiens, UniProt P52333).
T1 construct: Jak3 enzyme (aa 811-1103); expressed in SF9 cells as a GST fusion; GST; made in house; host or cells: SF9 insect cells
The experiment in a line: Jak3 enzyme data for selected compounds. Type of assay: biochemical.
As for `C[C@@H]1CCN(C(=O)C2CCS(=O)(=O)C2)C[C@@H]1c1ncc2cnc3[nH]ccc3n12` (mixture of isomers) [H.1.29], the pIC50 is greater than 7.00.
With `CC[C@@H]1C[C@H](OCc2ccc(OC)cc2)C[C@H]1c1nnc2cnc3[nH]ccc3n12` (racemic) [D.1.38] the figure was 6.00 to 7.00.
As for `C[C@H]1CCN(S(=O)(=O)CCC(F)(F)F)C[C@@H]1Nc1ncc2cnc3[nH]ccc3n12` (racemic) [D.1.66], the pIC50 is less than 6.00.
On to `O=S(=O)(CCC(F)(F)F)N1CCC[C@H]2[C@H]1CCN2c1ncc2cnc3[nH]ccc3n12` (racemic) [D.1.69], for which the pIC50 was less than 6.00.
With `CC[C@@H]1C[C@@H](Oc2ccc(C#N)cn2)C[C@H]1c1nnc2cnc3[nH]ccc3n12` (racemic) [D.2.10] the figure was less than 6.00; with `CC[C@@H]1C[C@@H](Oc2ccc(C#N)cn2)C[C@@H]1c1nnc2cnc3[nH]ccc3n12` (racemic) [D.2.22], 6.00 to 7.00.
The value for `C[C@@H]1CCN(C(=O)C2(C#N)CC2)C[C@@H]1c1ncc2cnc3[nH]ccc3n12` (racemic) [H.3.14] was 6.00 to 7.00; that for `C[C@@H]1CCN(C(=O)N2CCCC2)C[C@@H]1c1ncc2cnc3[nH]ccc3n12` (racemic) [I.2.1] was greater than 7.00; that for `C[C@H]1CCN(C(=O)N(C)C)C[C@H]1c1ncc2cnc3[nH]ccc3n12` (racemic) [I.2.2] was greater than 7.00.
The value for `C[C@H]1CCN(C(=O)N2CC(C#N)C2)C[C@H]1c1ncc2cnc3[nH]ccc3n12` (racemic) [J.1.1] was greater than 7.00; that for `C[C@@H]1CCN(C(=O)N2CC[C@H](C#N)C2)C[C@@H]1c1ncc2cnc3[nH]ccc3n12` (racemic) [J.2.1] was greater than 7.00.
For `C[C@H]1CCN(C(=O)N2CC[C@@H](C)[C@@H](c3ncc4cnc5[nH]ccc5n34)C2)C1` (racemic) [J.2.10], the pIC50 is greater than 7.00.
As for `C[C@@H]1CCN(c2cnc(C#N)cn2)C[C@@H]1c1ncc2cnc3[nH]ccc3n12` (racemic) [L.1.2], the negative logarithm of the IC50 (pIC50) was greater than 7.00.
Turning to `C[C@@H]1CCN(c2ncc(C#N)s2)C[C@@H]1c1ncc2cnc3[nH]ccc3n12` (racemic) [L.1.4], the pIC50 was greater than 7.00.
The value for `CC[C@@H]1C[C@H](Oc2cnc(C#N)cn2)C[C@@H]1c1nnc2cnc3[nH]ccc3n12` (relative stereo) [AA.1.37, 5-(3-ethyl-4-(6H-pyrrolo[2,3-e][1,2,4]triazolo[4,3-a]pyrazin-1-yl)cyclopentyloxy)pyrazine-2-carbonitrile] was 6.00 to 7.00; that for `CC[C@@H]1C[C@@H](OCCC(F)(F)F)C[C@@H]1c1nnc2cnc3[nH]ccc3n12` (relative stereo) [AA.1.107, 1-(2-ethyl-4-(3,3,3-trifluoropropoxy)cyclopentyl)-6H-pyrrolo[2,3-e][1,2,4]triazolo[4,3-a]pyrazine] was greater than 7.00.
Regarding `N#Cc1ccc(N[C@@H]2CC[C@@H](c3ncc4cnc5[nH]ccc5n34)C2)cc1` (single isomer, unassigned) [AA.1.3], the pIC50 is 6.00 to 7.00.
As to `CC[C@H]1C[C@H](NS(=O)(=O)C2CC2)C[C@@H]1c1nnc2cnc3[nH]ccc3n12` (single isomer, unassigned) [AA.1.5], the pIC50 is 6.00 to 7.00.
With `O=C(N1CCC[C@@H](c2cnc3cnc4[nH]ccc4n23)C1)N1CC(F)(F)C1` (single isomer, unassigned) [AA.1.6, (3-(3H-imidazo[1,2-a]pyrrolo[2,3-e]pyrazin-8-yl)piperidin-1-yl)(3,3-difluoroazetidin-1-yl)methanone] the figure was greater than 7.00; with `O=C(N1CCC[C@@H](c2cnc3cnc4[nH]ccc4n23)C1)N1CCC(F)(F)C1` (single isomer, unassigned) [AA.1.8, (3-(3H-imidazo[1,2-a]pyrrolo[2,3-e]pyrazin-8-yl)piperidin-1-yl)(3,3-difluoropyrrolidin-1-yl)methanone], greater than 7.00.
`O=C(N1CCC(F)(F)CC1)N1CCC[C@@H](c2cnc3cnc4[nH]ccc4n23)C1` (single isomer, unassigned) [AA.1.9, (3-(3H-imidazo[1,2-a]pyrrolo[2,3-e]pyrazin-8-yl)piperidin-1-yl)(4,4-difluoropiperidin-1-yl)methanone]: the pIC50 was 6.00 to 7.00.
The value for `C[C@@H]1CCN(c2ncc(C#N)s2)C[C@@H]1c1ncc2cnc3[nH]ccc3n12` (single isomer, unassigned) [AA.1.11, 2-(-3-(6H-imidazo[1,5-a]pyrrolo[2,3-e]pyrazin-1-yl)-4-methylpiperidin-1-yl)thiazole-5-carbonitrile] was greater than 7.00.
The value for `C[C@@H]1C[C@H](Nc2cnc(C#N)cn2)C[C@@H]1c1cnc2cnc3[nH]ccc3n12` (single isomer, unassigned) [AA.1.16, 5-(3-(3H-imidazo[1,2-a]pyrrolo[2,3,-e]pyrazin-8-yl)-4-methylcyclopentylamino)pyrazine-2-carbonitrile] was 6.00 to 7.00; that for `C[C@@H]1C[C@H](Nc2cnc(C#N)cn2)C[C@H]1c1cnc2cnc3[nH]ccc3n12` (single isomer, unassigned) [AA.1.18, 5-(3-(3H-imidazo[1,2-a]pyrrolo[2,3,-e]pyrazin-8-yl)-4-methylcyclopentylamino)pyrazine-2-carbonitrile] was greater than 7.00; that for `N#Cc1cnc(N2CCC[C@@H](c3cnc4cnc5[nH]ccc5n34)C2)s1` (single isomer, unassigned) [AA.1.22, 2-(3-(3H-imidazo[1,2-a]pyrrolo[2,3,-e]pyrazin-8-yl)piperidin-1-yl)thiazole-5-carbonitrile] was greater than 7.00.
As for `CC[C@H]1C[C@@H](NS(=O)(=O)C2CC2)C[C@H]1c1cnc2cnc3[nH]ccc3n12` (single isomer, unassigned) [AA.1.25, N-(3-ethyl-4-(3H-imidazo[1,2-a]pyrrolo[2,3-e]pyrazin-8-yl)cyclopentyl)cyclopropanesulfonamide], the pIC50 is greater than 7.00.
`CC[C@@H]1C[C@@H](Oc2ccc(C#N)cn2)C[C@@H]1c1nnc2cnc3[nH]ccc3n12` (single isomer, unassigned) [AA.1.29, 6-(3-ethyl-4-(6H-pyrrolo[2,3-e][1,2,4]triazolo[4,3-a]pyrazin-1-yl)cyclopentyloxy)-nicotinonitrile] showed a pIC50 of less than 6.00.
With `CC[C@@H]1C[C@H](OCc2ccc(OC)cc2)C[C@H]1c1nnc2cnc3[nH]ccc3n12` (single isomer, unassigned) [AA.1.32, 1-(2-ethyl-4-(4-methoxybenzyloxy)cyclopentyl)-6H-pyrrolo[2,3-e][1,2,4]triazolo [4,3-a]pyrazine] the figure was 6.00 to 7.00.
The value for `CC[C@@H]1C[C@@H](Oc2cnc(C#N)cn2)C[C@@H]1c1nnc2cnc3[nH]ccc3n12` (single isomer, unassigned) [AA.1.33, 5-(3-ethyl-4-(6H-pyrrolo[2,3-e][1,2,4]triazolo[4,3-a]pyrazin-1-yl)cyclopentyloxy)pyrazine-2-carbonitrile] was 6.00 to 7.00.
In the case of `CC[C@H]1C[C@@H](COc2cnc(C#N)cn2)C[C@H]1c1nnc2cnc3[nH]ccc3n12` (single isomer, unassigned) [AA.1.42, 5-((cis-3-ethyl-4-(6H-pyrrolo[2,3-e][1,2,4]triazolo[4,3-a]pyrazin-1-yl)cyclopentyl)methoxy)-pyrazine-2-carbonitrile], the negative-log IC50 (pIC50) is less than 6.00.
The value for `CC[C@@H]1C[C@H](NS(=O)(=O)C2CC2)C[C@]1(F)c1nnc2cnc3[nH]ccc3n12` (single isomer, unassigned) [AA.1.43, N-(cis-4-ethyl-3-fluoro-3-(6H-pyrrolo[2,3-e][1,2,4]triazolo[4,3-a]pyrazin-1-yl)cyclopentyl)cyclo-propanesulfonamide] was greater than 7.00; that for `CC[C@H]1C[C@@H](NS(=O)(=O)C2CC2)C[C@]1(F)c1nnc2cnc3[nH]ccc3n12` (single isomer, unassigned) [AA.1.44, N-(cis-4-ethyl-3-fluoro-3-(6H-pyrrolo[2,3-e][1,2,4]triazolo[4,3-a]pyrazin-1-yl)cyclopentyl)cyclo-propanesulfonamide] was 6.00 to 7.00; that for `CC[C@@H]1CCN(C(=O)CC#N)C[C@@H]1c1ncc2cnc3[nH]ccc3n12` (single isomer, unassigned) [AA.1.54, 3-(cis-4-ethyl-3-(6H-imidazo[1,5-a]pyrrolo[2,3-e]pyrazin-1-yl)piperidin-1-yl)-3-oxopropanenitrile] was 6.00 to 7.00.
The value for `O=S(=O)(NC[C@H]1CC[C@H](c2ncc3cnc4[nH]ccc4n23)C1)C1CC1` (single isomer, unassigned) [AA.1.60] was 6.00 to 7.00; that for `O=S(=O)(NC[C@H]1CC[C@@H](c2ncc3cnc4[nH]ccc4n23)C1)C1CC1` (single isomer, unassigned) [AA.1.61] was 6.00 to 7.00; that for `O=S(=O)(CCC(F)(F)F)NC[C@H]1CC[C@@H](c2ncc3cnc4[nH]ccc4n23)C1` (single isomer, unassigned) [AA.1.62] was 6.00 to 7.00.
With `O=S(=O)(CCC(F)(F)F)NC[C@H]1CC[C@H](c2ncc3cnc4[nH]ccc4n23)C1` (single isomer, unassigned) [AA.1.63], the pIC50 is less than 6.00.
The compound `CCC1CC(CNS(=O)(=O)C2CC2)CC1c1nnc2cnc3[nH]ccc3n12` (single isomer, unassigned) [AA.1.64, N-((3-ethyl-4-(6H-pyrrolo[2,3-e][1,2,4]triazolo[4,3-a]pyrazin-1-yl)cyclopentyl)methyl)cyclopropane sulfonamide] gave a pIC50 of less than 6.00.
The value for `CC[C@@H]1C[C@H](OCC2CCOCC2)C[C@H]1c1nnc2cnc3[nH]ccc3n12` (single isomer, unassigned) [AA.1.66, 1-(2-ethyl-4-((tetrahydro-2H-pyran-4-yl)methoxy)cyclopentyl)-6H-pyrrolo[2,3-e][1,2,4]triazolo[4,3-a]pyrazine] was less than 6.00; that for `CC[C@@H]1C[C@H](OCC2CCOCC2)C[C@@H]1c1nnc2cnc3[nH]ccc3n12` (single isomer, unassigned) [AA.1.67, 1-(2-ethyl-4-((tetrahydro-2H-pyran-4-yl)methoxy)cyclopentyl)-6H-pyrrolo[2,3-e][1,2,4]triazolo[4,3-a]pyrazine] was less than 6.00.

Source of the values: patent USRE47221E1, “Tricyclic compounds” (AbbVie Inc., priority 2009, dated 2019).
